In patent US3960860A, “2-Methyl-5,7-dihydrothieno-[3,4d]-pyrimidine” (priority 1975, dated 1976):

Key:
[1] = fragrance of perfume composition; settings: thienopyrimidine replaces 20 parts of caraway essence
[2] = character of vanilla flavor; settings: 0.2 parts of 0.1% in propylene glycol; compared with the material omitted
Protocol: A vanilla flavor is prepared by admixing the following ingredients: […]

[3] = taste of aqueous solutions; settings: by itself at levels of 10 parts in 10^10, aqueous solutions
Source text: (§1) It can thus be used as an enhancer to reduce the quantity of artificial sweeteners required or to permit diminution of the quantity of natural sweeteners such as sugar.

[4] = comparison of toxicity and potency with the chloroanalog; settings: versus other analogs, such as its chloroanalog
[5] = organoleptic evaluation (odor and flavor) of the pyrimidine
[6] = acute oral toxicity (LD50, no-effect dose); settings: in vivo
[7] = enhancement of the sweetness of foods; settings: in foods; levels as low as
Source text: as §1

[8] = 0.1% alcohol solution on a blotter strip

Compound: Cc1ncc2c(n1)CSC2 [2-methyl-5,7-dihydrothieno-[3,4d]-pyrimidine]
- caraway note after replacement of caraway essence [1]: the natural caraway note of the original perfume is retained
- quality of vanilla flavor [2]: distinctly "natural" quality
- aftertaste imparted to aqueous solutions [3]: sweet, pleasant, and non-bitter aftertaste
- potency relative to other analogs [4]: less potent
- toxicity relative to other analogs [4]: less toxic
- odor/flavor character in aqueous solution ([5]; 0.001 ppm in aqueous solution): sweet roasted nut, popcorn character with a light astringency
- flavor in water ([5]; 0.003 ppm in water): popcorn, roasted peanut flavor with an astringency like peanut skins
- odor [5, 8]: sharp, fresh roasted, sweet nut with a popcorn character
- persistence of odor [5, 8]: the odor seems to disappear because of anosmia
- flavor effect in chicken broth ([5]; 10^^-6 ppm in chicken broth): accentuates the root vegetable flavor notes
- odor of the crystalline material ([5]; colorless crystalline material): powerful odor of roasted fresh, sweet nut with a definite popcorn character
- NOAEL ([6]; po, test animals, read-out: maximum no effective dose or the lowest dosage level at which essentially no signs of toxicity in test animals is observed): 34 mg/kg
- LD50 ([6]; acute, oral): 260 ± 40 mg/kg
- level at which the material begins to enhance the sweetness of foods [7]: 10 parts in 10^12
